# Measurements as given in PubChem BioAssay (NCI).
#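 Protocol summary: plate cells (96-well), add compound at 5 concentrations, incubate 48 h, interpolate endpoints linearly. The concentration for 50% growth inhibition is given as GI50. At the TGI there is no net growth.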
# Key:
# Assay in all cases: NCI tumour cell line growth inhibition, 48 h
# [1] = test system: UACC-257 melanoma
# [2] = test system: RPMI-8226 leukemia
# [3] = test system: NCI-H23 lung
# [4] = test system: SN12C renal
# [5] = test system: TK-10 renal
# [6] = test system: HCT-15 colon
# [7] = test system: NCI-H522 lung
# [8] = test system: MOLT-4 leukemia
# [9] = test system: NCI-H226 lung
# [10] = test system: KM12 colon
Structure (SMILES),GI50 [1] [µM],TGI [1] [µM],GI50 [2] [µM],TGI [2] [µM],GI50 [3] [µM],TGI [3] [µM],GI50 [4] [µM],TGI [4] [µM],GI50 [5] [µM],TGI [5] [µM],GI50 [6] [µM],TGI [6] [µM],GI50 [7] [µM],TGI [7] [µM],TGI [8] [µM],TGI [9] [µM],TGI [10] [µM],GI50 [8] [µM],GI50 [9] [µM],GI50 [10] [µM]
COC(=O)c1ccc(NC(N)=NCC(C)(C)COc2ccc(C(F)(F)F)cc2)nc1,1.69,3.27,1.3,3.64,1.45,3.09,1.79,3.41,1.57,3,1.56,3.08,1.6,3.23,–,–,–,–,–,–
COC(=O)[C@@H]1[C@H](O)[C@H](C)[C@H](O)[C@H](C)/C=C\C=C(C)C(=O)Nc2c(C)c(OC(C)=O)c3c(c2O)C(=O)C(C)=C2OCOC(=C23)C(C)=C[C@@](C)(O)[C@H](O)[C@@H](C)[C@H]1OC(C)=O,–,76.6,–,56.9,–,> 100,–,> 100,–,–,–,–,–,–,> 100,> 100,> 100,–,–,–
CC1NCCc2c1[nH]c1cc(O)ccc21 (stereo unspecified),–,> 100,–,> 100,–,> 100,–,> 100,–,> 100,–,> 100,–,–,> 100,> 100,> 100,–,–,–
O=C(Nc1cc(C(F)(F)F)cc(C(F)(F)F)c1)Nc1ccc(OCc2nnc(-c3ccc(Cl)cc3)o2)c(F)c1,1.62,5.01,1.02,5.3,1.88,6.26,2.61,15.7,4.39,33.9,1.99,14,–,–,12,12.5,5.72,2.72,2.93,1
CSC(=NC#N)S/C=C/C(=O)c1cccc2ccccc12,21.3,47.2,25,> 100,–,–,31.1,> 100,22.2,45.4,27.4,> 100,28.5,81.4,> 100,–,> 100,8.46,–,29.1
O=C(NCCNC(=O)c1ccc(F)cc1)Nc1ccc(-n2cc(-c3ccncc3)c(-c3ccc(Cl)c(O)c3)n2)cc1,1.37,5.89,–,–,0.587,7.77,0.509,> 100,2.49,–,2.12,7,0.306,2.94,3.54,6.48,2.28,0.356,0.809,0.433
CN(C)CCC(=O)N1CCc2c([nH]c3ccccc23)C1c1cccnc1 (stereo unspecified),–,> 100,–,> 100,–,> 100,–,> 100,–,> 100,–,> 100,–,> 100,> 100,–,> 100,–,–,–
COc1ccccc1Nc1nc2ccccc2c2occc12,14.3,35.7,20.6,> 50,16.3,35.9,10.7,33.8,18.8,> 50,10.5,27,12,29.7,–,–,> 50,–,–,16.1
OCCSCC/C(=N\N=C(/CCSCCO)c1ccccc1)c1ccccc1,–,> 100,–,> 100,–,> 100,–,> 100,–,> 100,–,> 100,–,–,> 100,> 100,> 100,–,–,–
Cc1ccc(S(=O)(=O)N[C@@H](Cc2ccccc2)C(=O)CCl)cc1,43.2,> 100,–,–,20.5,51.4,–,–,19.4,41.7,10.8,27.5,11.5,37.1,> 100,–,38,1.99,–,18.2
C/C=C/C=C/CCCCCCCCCCCCC[C@]1(OC)C=CC(CC(=O)OC)OO1 (stereo partly specified),–,45.6,–,49.2,19.1,36.8,–,48,17.6,31.7,16,29.5,3.8,16.6,48.7,–,36.3,19.9,–,17.9
Cc1cccc2cc3cccc(C(=O)NCCN(C)C)c3nc12,–,1.46,–,–,–,1.17,–,1.02,–,7.88,–,1.5,–,1.19,0.344,0.343,6.12,–,–,–
Cc1cc(Cl)cc2c1NC(=O)C2(O)CC(=O)c1ccc(F)cc1 (stereo unspecified),–,> 100,–,65.3,–,> 100,–,> 100,–,> 100,–,> 100,–,–,–,> 100,> 100,–,–,–
